Measured values: article PMC7646200 (Xenobiotica; the fate of foreign compounds in biological …, 2020)

Tests used:
mouse liver cytosol = assay: Sulfonation of 7-hydroxycoumarin derivatives by mouse liver cytosol; conditions: for sulfonation rate: 10 μM substrate; for Vmax: mouse liver cytosol, value (95 % confidence interval)
in vitro [1] = conditions: male, human, pH 7.4
in vitro [2] = conditions: female, pig, pH 7.4
dog liver cytosol = assay: Sulfonation of 7-hydroxycoumarin derivatives by dog liver cytosol; conditions: dog liver cytosol; for intrinsic clearance (Vmax/Km): rank among species; for Vmax: value (95 % confidence interval)
rabbit liver cytosol = assay: Sulfonation of 7-hydroxycoumarin derivatives by rabbit liver cytosol; conditions: rabbit liver cytosol; value (95 % confidence interval)
in vitro [3] = conditions: male, Wistar, rat, pH 7.4
in vitro [4] = conditions: female, Dutch belted, rabbit, pH 7.4
human liver cytosol = assay: Sulfonation of 7-hydroxycoumarin derivatives by human liver cytosol; conditions: human liver cytosol; value (95 % confidence interval)
in vitro [5] = conditions: DBA/2N/Kuo, mouse, pH 7.4
pig liver cytosol = assay: Sulfonation of 7-hydroxycoumarin derivatives by pig liver cytosol; conditions: pig liver cytosol; value (95 % confidence interval)
rat liver cytosol = assay: Sulfonation of 7-hydroxycoumarin derivatives by rat liver cytosol; conditions: rat liver cytosol; value (95 % confidence interval)
sheep liver cytosol = assay: Sulfonation of 7-hydroxycoumarin derivatives by sheep liver cytosol; conditions: sheep liver cytosol; value (95 % confidence interval)
in vitro [6] = conditions: both, Beagle, dog, pH 7.4
in vitro [7] = conditions: female, sheep, pH 7.4

Structure (SMILES) | sulfonation rate (mouse liver cytosol; female mouse liver cytosol) | sulfonation rate (mouse liver cytosol; male mouse liver cytosol) | Vmax (mouse liver cytosol) | Km (in vitro [1]) [µM] | Km (in vitro [2]) [µM] | intrinsic clearance (Vmax/Km) (dog liver cytosol) | Vmax (dog liver cytosol) | Vmax (rabbit liver cytosol) | Km (in vitro [3]) [µM] | Km (in vitro [4]) [µM] | Vmax (human liver cytosol) | Km (in vitro [5]) [µM] | Vmax (pig liver cytosol) | Vmax (rat liver cytosol) | Vmax (sheep liver cytosol) | Km (in vitro [6]) [µM] | Km (in vitro [7]) [µM]
Cc1c(C)c2ccc(O)cc2oc1=O [compound 4, 3,4-dimethyl-7-hydroxycoumarin] | Slow | Slow | 17 (14–20) nmol/(min * g protein) | 24 | 6.4 | highest | 330 (250–420) nmol/(min * g protein) | 13 (0–28) nmol/(min * g protein) | 1.1 | 0.65 | 210 (0–1300) nmol/(min * g protein) | 0.11 | 67 (18–120) nmol/(min * g protein) | 380 (140–620) nmol/(min * g protein) | 300 (230–370) nmol/(min * g protein) | 0.62 | 0.46
COc1ccc(-c2cc3ccc(O)cc3oc2=O)cc1 [compound 11, 3-(4-methoxyphenyl)-7-hydroxycoumarin] | – | – | 100 (84–150) nmol/(min * g protein) | 0.11 | 1.3 | highest | 300 (150–710) nmol/(min * g protein) | 190 (100–260) nmol/(min * g protein) | 0.57 | 3.4 | 18 (12–23) nmol/(min * g protein) | 1.2 | 5.5 (3.3–7.8) nmol/(min * g protein) | 210 (190–260) nmol/(min * g protein) | 410 (190–620) nmol/(min * g protein) | 0.22 | 9.8
